Legend:
[1] = Cytotoxicity against human MT4 cells assessed as cell viability after 96 hrs by MTT assay; type: cell-based
[2] = Cytotoxicity against MDBK cells assessed as cell viability after 48 to 96 hrs by MTT assay; type: cell-based, Bos taurus; conditions: cattle
[3] = Cytotoxicity against BHK cells assessed as cell viability after 48 to 96 hrs by MTT assay; type: cell-based, Mesocricetus auratus; conditions: hamster
[4] = Cytotoxicity against african green monkey Vero 76 cells assessed as cell viability after 48 to 96 hrs by crystal violet staining method; type: cell-based; conditions: chlorocebus sabaeus
[5] = test system: Bovine viral diarrhea virus 1; assay: Antiviral activity against BVDV infected in MDBK cells assessed as inhibition of virus-induced cytopathogenicity after 3 to 4 days by MTT assay; type: functional, organism-based; conditions: Bovine viral diarrhea virus isolates and strains
Yellow fever virus = assay: Antiviral activity against YFV infected in BHK-21 cells assessed as inhibition of virus-induced cytopathogenicity after 3 to 4 days by MTT assay; type: functional, organism-based
[6] = test system: Mammalian orthoreovirus 1; assay: Antiviral activity against Reo-1 virus infected in BHK-21 cells assessed as inhibition of virus-induced cytopathogenicity after 3 to 4 days by MTT assay; type: functional, cell-based; conditions: Mammalian orthoreovirus 1, BHK-21
Coxsackievirus B5 = assay: Antiviral activity against human CVB5 infected in african green monkey Vero76 cells assessed as inhibition of virus-induced cytopathogenicity after 3 days by plaque reduction assay; type: functional, organism-based; conditions: Enterovirus B, Vero 76, 72 h
Human orthopneumovirus = assay: Antiviral activity against human RSV infected in african green monkey Vero76 cells assessed as inhibition of virus-induced cytopathogenicity after 5 days by plaque reduction assay; type: functional, organism-based; conditions: human respiratory syncytial virus, Vero 76, 120 h
Poliovirus 1 = assay: Antiviral activity against Human poliovirus 1 Sabin infected in african green monkey Vero76 cells assessed as inhibition of virus-induced cytopathogenicity by plaque reduction assay; type: functional, organism-based; conditions: Enterovirus C, Vero 76
[7] = Selectivity index, ratio of CC50 for african green monkey Vero76 cells to EC50 for human CVB5; design: species or system Coxsackievirus B5, Vero 76
[8] = Selectivity index, ratio of CC50 for african green monkey Vero76 cells to EC50 for human Sb-1; design: species or system Human poliovirus 1 strain Sabin, Vero 76
[9] = test system: Human immunodeficiency virus 1; assay: Antiviral activity against HIV-1 infected in MT4 cells assessed as inhibition of virus-induced cytopathogenicity after 4 days by MTT assay; type: functional, organism-based; conditions: Human immunodeficiency virus 1, MT4, 96 h
Human alphaherpesvirus 1 = assay: Antiviral activity against HSV1; type: functional, organism-based
[10] = test system: Vesicular stomatitis virus; assay: Antiviral activity against VSV; type: functional, organism-based
Vaccinia virus = assay: Antiviral activity against Vaccinia virus; type: functional, organism-based; conditions: Orthopoxvirus vaccinia
[11] = Selectivity index, ratio of CC50 for african green monkey Vero76 cells to EC50 for human RSV; design: species or system human respiratory syncytial virus, Vero 76
[12] = Selectivity index, ratio of CC50 for BHK-21 cells to EC50 for YFV; design: species or system Yellow fever virus
[13] = Selectivity index, ratio of CC50 for MDBK cells to EC50 for BVDV; design: species or system Bovine viral diarrhea virus 1

| SMILES | CC50 at 96 h [1] [µM] | CC50 [2] [µM] | CC50 [3] [µM] | CC50 [4] [µM] | EC50 [5] [µM] | EC50 (Yellow fever virus) [µM] | EC50 [6] [µM] | EC50 (Coxsackievirus B5) [µM] | EC50 (Human orthopneumovirus) [µM] | EC50 (Poliovirus 1) [µM] | Ratio CC50/EC50 [7] | Ratio CC50/EC50 [8] | EC50 [9] [µM] | EC50 (Human alphaherpesvirus 1) [µM] | EC50 [10] [µM] | EC50 (Vaccinia virus) [µM] | Ratio CC50/EC50 [11] | Ratio CC50/EC50 [12] | Ratio CC50/EC50 [13] |
| --- | --- | --- | --- | --- | --- | --- | --- | --- | --- | --- | --- | --- | --- | --- | --- | --- | --- | --- | --- |
| COc1ccc(-n2nc3ccc(C(F)(F)F)cc3n2)cc1 | > 100 | > 100 | > 100 | > 100 | > 100 | > 100 | > 100 | 80 | > 100 | 40 | >1.25 | >2.5 | > 100 | > 100 | > 100 | > 100 | – | – | – |
| [O-][n+]1c2cc(C(F)(F)F)ccc2nn1-c1ccc(O)cc1 | > 100 | 72 | > 100 | > 100 | > 100 | > 100 | > 100 | 75 | 40 | > 100 | >1.33 | – | > 100 | – | > 100 | > 100 | >2.5 | – | – |
| CC(C)(CCCOc1ccc(-n2nc3ccc(Cl)cc3n2)cc1)C(=O)O | 51 | 32 | 16 | 15 | > 100 | > 100 | – | 0.7 | 2 | > 100 | 31.43 | – | > 100 | – | > 100 | > 100 | 7.5 | – | – |
| FC(F)(F)c1ccc2c(c1)nnn2C[C@@H]1CCCN2CCCC[C@H]12 | > 100 | > 100 | > 100 | > 100 | > 100 | 27 | > 100 | 38 | 90 | > 100 | >2.63 | – | > 100 | > 100 | > 100 | > 100 | >1.11 | >3.7 | – |
| Nc1ccc(-n2nc3ccccc3n2)cc1 | ≥ 100 | 100 | 100 | > 100 | 35 | 75 | 90 | > 100 | > 100 | > 100 | – | – | > 100 | – | > 100 | > 100 | – | 1.33 | 2.86 |
| O=c1cnn([C@@H]2O[C@H](CO)[C@@H](O)[C@H]2O)c(=O)[nH]1 [6-AZAURIDINE] | – | > 100 | > 100 | – | > 100 | – | > 100 | > 100 | 1.2 | > 100 | – | – | – | > 100 | > 100 | 11 | 16.7 | >3.8 | – |
| CC(C)(COc1ccc(-n2nc3ccc(Cl)cc3n2)cc1)C(=O)O | 94 | 52 | 47 | 40 | 21 | > 100 | – | 1.7 | 12 | > 100 | 23.53 | – | > 100 | – | > 100 | > 100 | 3.33 | – | 2.47 |
| CN(C)c1cccc(C(=O)OCCCn2nc3ccccc3n2)c1 | > 100 | > 100 | > 100 | > 100 | > 100 | > 100 | – | 73 | > 100 | – | >1.37 | – | > 100 | – | > 100 | > 100 | – | – | – |
| Oc1ccc(-n2nc3ccccc3n2)cc1 | > 100 | ≥ 100 | 83 | 90 | 17 | ≥ 83 | – | > 100 | – | 7 | – | 12.86 | > 100 | – | > 100 | > 100 | – | – | >5.88 |
| COc1ccccc1N1CCN(CCCOc2ccc(-n3nc4ccc(C(F)(F)F)cc4n3)cc2)CC1 | 100 | > 100 | > 100 | 100 | > 100 | > 100 | > 100 | 53 | > 100 | > 100 | 1.89 | – | > 100 | – | > 100 | > 100 | – | – | – |
| Clc1cc2nnn(C3CCCCO3)c2cc1Cl (stereo not drawn) | > 100 | > 100 | > 100 | ≥ 100 | > 100 | > 100 | > 100 | – | – | 60 | – | 1.67 | > 100 | > 100 | > 100 | – | – | – | – |
| COc1ccc2nn(-c3ccc(OCCCC(C)(C)C(=O)O)cc3)nc2c1 | 28 | > 100 | 50 | 20 | 44 | > 100 | – | 2 | > 100 | > 100 | 10 | – | > 100 | – | > 100 | > 100 | – | – | 2.27 |
| Cc1ccc2nn(-c3ccc(OCC(C)(C)C(=O)O)cc3)nc2c1 | ≥ 100 | 69 | ≥ 100 | 60 | > 100 | > 100 | – | 5 | 15 | > 100 | 12 | – | > 100 | – | > 100 | > 100 | 4 | – | – |
| CC(=O)Nc1ccc(-n2nc3ccccc3n2)cc1 | 66 | 100 | > 100 | > 100 | 70 | > 100 | 83 | 40 | > 100 | > 100 | >2.5 | – | > 100 | – | > 100 | > 100 | – | – | 1.43 |
| Cc1cc(CCCOc2c(C)cc(-c3noc(C(F)(F)F)n3)cc2C)on1 [PLECONARIL] | – | – | – | 70 | – | – | – | 0.008 | – | 2 | – | 35 | – | – | – | – | – | 8750 | – |
| C#C[C@@]1(O)[C@H](O)[C@@H](CO)O[C@H]1n1ccc(N)nc1=O [2'-ETHYNYL-D-CYTIDINE] | > 100 | > 100 | > 100 | > 100 | – | > 100 | > 100 | 30 | > 100 | 25 | >3.3 | >4 | – | > 100 | > 100 | > 100 | – | – | >2.6 |
